Where two headings read alike, the source gives them in different places.
Tested on: L-carnitine dehydrogenase from Alcaligenes sp. No. 981 (FERM BP-2570)
Assay: Km determination of L-carnitine dehydrogenase (diaphorase/NBT coupled reaction mixture)
Assay type: biochemical
Method: Km-value for NAD^+ is measured in various concentrations of NAD^+ in a reaction mixture of:
100 mM Tris-HCl buffer (pH 9.0)
5 U diaphorase (Toyo Jozo Co.)
0.025% NBT (Wako Pure Chem. Co.)
1% Tween 80 (Wako Pure Chem. Co.) and
In the reaction mixture, 50 mM L-carnitine is replaced by 1 mM NAD^+, and the concentration of L-carnitine is varied to measure the Km-value of L-carnitine.
The results are as shown above.

| Compound | Km (100 mM Tris-HCl buffer pH 9.0, 50 mM L-carnitine, NAD+ concentration varied, read-out: Km-value (NAD+)) | Km (100 mM Tris-HCl buffer pH 9.0, 1 mM NAD+, L-carnitine concentration varied, read-out: Km-value (L-carnitine)) |
| --- | --- | --- |
| NC(=O)c1ccc[n+]([C@@H]2O[C@H](COP(=O)([O-])OP(=O)(O)OC[C@H]3O[C@@H](n4cnc5c(N)ncnc54)[C@H](O)[C@@H]3O)[C@@H](O)[C@H]2O)c1 [NAD^+] | 0.141 mM |  |
| C[N+](C)(C)C[C@H](O)CC(=O)[O-] [L-carnitine] |  | 9.3 mM |

From patent publication US5173416A, “L-carnitine dehydrogenase from alcalgenes” (Toyo Jozo Kabushiki Kaisha, priority 1989, dated 1992)
